Data as given in patent US7375109B2, “Glycine-substituted thieno[2,3-d]pyrimidines with combined LH and FSH agonistic activity” (N.V. Organon, priority 2001, dated 2008).

Experiments:
human LH receptor = target: T1, human LH receptor (Homo sapiens, UniProt P22888); experiment: CHO-LH in vitro bioactivity (CRE-luciferase reporter); format: cell-based; settings: CHO cells stably transfected with human LH receptor
T1 construct: expressed in transfected cells; host or cells: Chinese Hamster Ovary (CHO) cells, stably transfected; cotransfected with CRE-luciferase reporter
T1 sequence (P22888 27-699): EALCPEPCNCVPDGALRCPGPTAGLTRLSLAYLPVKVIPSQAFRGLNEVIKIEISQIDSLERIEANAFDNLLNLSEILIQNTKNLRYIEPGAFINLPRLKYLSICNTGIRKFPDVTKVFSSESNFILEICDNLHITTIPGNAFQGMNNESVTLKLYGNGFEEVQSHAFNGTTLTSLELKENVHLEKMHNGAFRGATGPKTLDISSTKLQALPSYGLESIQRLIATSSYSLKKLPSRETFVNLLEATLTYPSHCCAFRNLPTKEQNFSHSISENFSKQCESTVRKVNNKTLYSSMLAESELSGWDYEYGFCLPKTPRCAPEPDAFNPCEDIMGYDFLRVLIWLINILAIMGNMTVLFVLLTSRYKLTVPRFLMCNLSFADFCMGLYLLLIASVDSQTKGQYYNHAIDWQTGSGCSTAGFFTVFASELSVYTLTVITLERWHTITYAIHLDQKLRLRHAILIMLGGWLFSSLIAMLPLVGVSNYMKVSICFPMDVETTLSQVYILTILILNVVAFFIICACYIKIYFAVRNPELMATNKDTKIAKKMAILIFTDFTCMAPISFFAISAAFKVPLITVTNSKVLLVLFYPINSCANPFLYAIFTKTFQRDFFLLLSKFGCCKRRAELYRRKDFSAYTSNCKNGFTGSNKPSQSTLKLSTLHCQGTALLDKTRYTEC
Procedure: (§1) It has been shown that compounds of the above mentioned formula I show agonistic LH and FSH activity. […] Typically the FSH activity ranges from an activity of about 0.1% of the LH agonist stimulation to about 10% of the LH agonist stimulation.
(§2) LH agonistic activity of compounds were tested in Chinese Hamster Ovary (CHO) cells stably transfected with the human LH receptor and cotransfected with a cAMP responsive element (CRE)/promotor directing the expression of a firefly luciferase reporter gene. Binding of ligand to the Gs-coupled LH receptor will result in an increase of cAMP, which in turn will induce an increased transactivation of the luciferase reporter construct. The luciferase signal was quantified using a luminescence counter. For test compounds, EC50 values (concentration of test compound causing half-maximal (50%) stimulation) were calculated. For that purpose the software program GraphPad PRISM, version 3.0 (GraphPad software Inc., San Diego) was used.

human FSH receptor = target: T2, human FSH receptor (Homo sapiens, UniProt P23945); experiment: CHO-FSH in vitro bioactivity (CRE-luciferase reporter); format: cell-based; settings: CHO cells transfected with human FSH receptor and luciferase reporter gene
T2 construct: expressed in transfected cells; host or cells: CHO cells transfected with human FSH receptor and CRE-luciferase reporter
T2 sequence (P23945 18-695): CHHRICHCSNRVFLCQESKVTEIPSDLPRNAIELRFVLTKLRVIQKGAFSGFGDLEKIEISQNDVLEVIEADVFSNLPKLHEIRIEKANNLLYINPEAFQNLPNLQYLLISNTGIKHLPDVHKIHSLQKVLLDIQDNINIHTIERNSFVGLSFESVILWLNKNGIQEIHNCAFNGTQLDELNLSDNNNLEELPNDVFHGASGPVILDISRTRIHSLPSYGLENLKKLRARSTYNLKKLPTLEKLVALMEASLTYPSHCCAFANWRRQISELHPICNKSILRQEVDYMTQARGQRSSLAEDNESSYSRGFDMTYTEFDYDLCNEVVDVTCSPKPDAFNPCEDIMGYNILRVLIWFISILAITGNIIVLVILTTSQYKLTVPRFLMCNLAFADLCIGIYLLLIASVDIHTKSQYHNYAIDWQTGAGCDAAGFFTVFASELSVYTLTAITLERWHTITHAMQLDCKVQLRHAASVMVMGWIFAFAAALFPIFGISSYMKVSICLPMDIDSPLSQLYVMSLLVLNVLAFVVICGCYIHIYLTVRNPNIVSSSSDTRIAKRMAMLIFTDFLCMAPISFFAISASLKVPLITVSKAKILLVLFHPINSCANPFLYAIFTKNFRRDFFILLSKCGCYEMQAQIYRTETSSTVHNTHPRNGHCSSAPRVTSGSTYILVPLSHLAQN
Procedure: as §1, §2
In a similar way FSH agonistic activity of compounds were tested in CHO cells transfected with the luciferase reporter gene and the human FSH receptor.

immature female mice = experiment: In vivo bioactivity: ovulation induction in immature mice; settings: immature female mice primed with urinary FSH (Humegon 12.5 IU/animal); 50 mg/kg about 48 hours later; killed 24 hours after treatment
Procedure: To measure LH in vivo activity of compounds, ovulation induction in immature mice can be studied. In this assay immature female mice are primed with urinary FSH and approximately 48 hours later treated with a LH agonistic compound. The animals are killed after LH agonist treatment and the number of ova in the oviduct is microscopically assessed.
To measure in vivo activity of LH/FSH receptor agonistic compounds ovulation induction in immature mice were studied. In this assay immature female mice were primed with urinary FSH (Humegon 12.5 IU/animal). Approximately 48 hours later the animals were treated with a LH/FSH agonistic compound, the preparation of which is described in examples 1, 4, 9 and 17, at a dose-level of 50 mg/kg. The animals were killed 24 hours after LH/FSH agonist treatment and the number of ova in the oviduct was microscopically assessed. On average 10-15 animals were tested. The mean number of ova amounted 8 with the exception of the compound of example 17 (which was 0.4).

Row | EC50 (human LH receptor) | EC50 (human FSH receptor) | Structure (SMILES) | mean number of ova in the oviduct (immature female mice)
1 | 12.2 nM | 1130 nM | CSc1nc(-c2cccc(NC(=O)CNCC(O)CO)c2)c2c(N)c(C(=O)NC(C)(C)C)sc2n1 (centres unmarked) [Example 7] | 
2 | 12.1 nM | 2550 nM | COC(=O)CNCC(=O)Nc1cccc(-c2nc(-c3ccco3)nc3sc(C(=O)NC(C)(C)C)c(N)c23)c1 [Example 13] | 
3 | 10.4 nM | 1250 nM | CCNc1nc(-c2cccc(NC(=O)CN(CC)CCOC)c2)c2c(N)c(C(=O)NC(C)(C)C)sc2n1 [Example 17, tert-Butyl 5-amino-2-ethylamino-4-(3-((N-ethyl-N-(2-methoxyethyl)-glycinyl)-amino)-phenyl)-thieno[2,3-d]pyrimidine-6-carboxamide] | 0.4
4 | 10.1 nM | 2480 nM | COC(=O)CNCC(=O)Nc1cccc(-c2nc(-c3ccccc3)nc3sc(C(=O)NC(C)(C)C)c(N)c23)c1 [Example 10] | 
5 | 34.7 nM | 400 nM | CC(C)(C)NC(=O)c1sc2nc(-c3ccncc3)nc(-c3cccc(NC(=O)CNC(C)(C)CO)c3)c2c1N [Example 25, tert-Butyl 5-amino-2-(4-pyridyl)-4-(3-((N-(1-hydroxy-2-methyl-prop-2-yl) -glycinyl)-amino)-phenyl)-thieno[2,3-d]pyrimidine-6-carboxamide] | 
6 | 38.2 nM | 1230 nM | COCCN(CCOC)CC(=O)Nc1cccc(-c2nc(-c3ccncc3)nc3sc(C(=O)NC(C)(C)C)c(N)c23)c1 [Example 26, tert-Butyl 5-amino-2-(4-pyridyl)-4-(3-((N,N-bis-(2-methoxyethyl)-glycinyl)-amino)-phenyl)-thieno[2,3-d]pyrimidine-6-carboxamide] | 
7 | 42.4 nM | 2950 nM | CCN(CCOC)CC(=O)Nc1cccc(-c2nc(NC(C)C)nc3sc(C(=O)NC(C)(C)C)c(N)c23)c1 [Example 20, tert-Butyl 5-amino-2-isopropylamino-4-(3-((N-ethyl-N-(2-methoxyethyl)-glycinyl)-amino)-phenyl)-thieno[2,3-d]pyrimidine-6-carboxamide] | 
8 | 26.4 nM | 1000 nM | CSc1nc(-c2cccc(NC(=O)CNC(CO)CO)c2)c2c(N)c(C(=O)NC(C)(C)C)sc2n1 [Example 8] | 
9 | 22.9 nM | 2300 nM | CCNc1nc(-c2cccc(NC(=O)CNCC(=O)OC)c2)c2c(N)c(C(=O)NC(C)(C)C)sc2n1 [Example 19, tert-Butyl 5-amino-2-ethylamino-4-(3-((N-(methoxycarbonylmethyl)-glycinyl)-amino)-phenyl)-thieno[2,3-d]pyrimidine-6-carboxamide] | 
10 | 11.6 nM | 953 nM | CCN(CCOC)CC(=O)Nc1cccc(-c2nc(OC)nc3sc(C(=O)NC(C)(C)C)c(N)c23)c1 [Example 22, tert-Butyl 5-amino-2-methoxy-4-(3-((N-ethyl-N-(2-methoxyethyl)-glycinyl)-amino)-phenyl)-thieno[2,3-d]pyrimidine-6-carboxamide] | 
11 | 5.97 nM | 1440 nM | COC(=O)CNCC(=O)Nc1cccc(-c2nc(SC)nc3sc(C(=O)NC(C)(C)C)c(N)c23)c1 [Example 3, tert-Butyl 5-amino-2-methylthio-4-(3-((N-(methoxycarbonylmethyl)-glycinyl)-amino)-phenyl)-thieno[2,3-d]pyrimidine-6-carboxamide] | 
12 | 5.28 nM | 1440 nM | CN(CCO)CC(=O)Nc1cccc(-c2nc(-c3cccs3)nc3sc(C(=O)NC(C)(C)C)c(N)c23)c1 [Example 14, tert-Butyl 5-amino-2-(2-thienyl)-4-(3-((N-methyl-N-(2-hydroxyethyl)-glycinyl)-amino)-phenyl)-thieno[2,3-d]pyrimidine-6-carboxamide] | 
13 | 18.2 nM | 3210 nM | COC(=O)CNCC(=O)Nc1cccc(-c2nc(-c3cccs3)nc3sc(C(=O)NC(C)(C)C)c(N)c23)c1 [Example 15, tert-Butyl 5-amino-2-(2-thienyl)-4-(3-((N-(methoxycarbonylmethyl)-glycinyl)-amino)-phenyl)-thieno[2,3-d]pyrimidine-6-carboxamide] | 
14 | 78.2 nM | 2510 nM | CCN(CCOC)CC(=O)Nc1cccc(-c2nc(OC(C)C)nc3sc(C(=O)NC(C)(C)C)c(N)c23)c1 [Example 24, tert-Butyl 5-amino-2-isopropoxy-4-(3-((N-ethyl-N-(2-methoxyethyl)-glycinyl)-amino)-phenyl)-thieno[2,3-d]pyrimidine-6-carboxamide] | 
15 | 21.3 nM | 6810 nM | COCCN(CCOC)CC(=O)Nc1cccc(-c2nc(-c3cccs3)nc3sc(C(=O)NC(C)(C)C)c(N)c23)c1 [Example 16, tert-Butyl 5-amino-2-(2-thienyl)-4-(3-((N,N-di-(2-methoxyethyl)-glycinyl)-amino)-phenyl)-thieno[2,3-d]pyrimidine-6-carboxamide] | 
16 | 10 nM | 1180 nM | COCCN(CCOC)CC(=O)Nc1cccc(-c2nc(SC)nc3sc(C(=O)NC(C)(C)C)c(N)c23)c1 [Example 6, tert-Butyl 5-amino-2-methylthio-4-(3-((N,N-bis-(2-methoxyethyl)-glycinyl)-amino)-phenyl)-thieno[2,3-d]pyrimidine-6-carboxamide] | 
17 | 57 nM | 560 nM | C=CCNc1nc(-c2cccc(NC(=O)CNCC(=O)OC)c2)c2c(N)c(C(=O)NC(C)(C)C)sc2n1 [Example 21, tert-Butyl 5-amino-2-allylamino-4-(3-((N-(methoxycarbonylmethyl)-glycinyl)-amino)-phenyl)-thieno[2,3-d]pyrimidine-6-carboxamide] | 
18 | 36.8 nM | 1740 nM | C=CCOc1nc(-c2cccc(NC(=O)CN(CC)CCOC)c2)c2c(N)c(C(=O)NC(C)(C)C)sc2n1 [Example 23, tert-Butyl 5-amino-2-allyloxy-4-(3-((N-ethyl-N-(2-methoxyethyl)-glycinyl)-amino)-phenyl)-thieno[2,3-d]pyrimidine-6-carboxamide] | 
19 | 9.63 nM | 348 nM | COC(=O)[C@H](NCC(=O)Nc1cccc(-c2nc(SC)nc3sc(C(=O)NC(C)(C)C)c(N)c23)c1)C(C)C [Example 5, tert-Butyl 5-amino-2-methylthio-4-(3-((N-(R-1-methoxycarbonyl-2-methyl-prop-1-yl)-glycinyl)-amino)-phenyl)-thieno[2,3-d]pyrimidine-6-carboxamide] | 
20 | 14.5 nM | 1630 nM | CN(CCO)CC(=O)Nc1cccc(-c2nc(N(C)C)nc3sc(C(=O)NC(C)(C)C)c(N)c23)c1 [Example 18, tert-Butyl 5-amino-2-(N,N-dimethylamino)-4-(3-((N-methyl-N-(2-hydroxyethyl)-glycinyl)-amino)-phenyl)-thieno[2,3-d]pyrimidine-6-carboxamide] | 
21 | 5.42 nM | 806 nM | CSc1nc(-c2cccc(NC(=O)CNC(C)(C)CO)c2)c2c(N)c(C(=O)NC(C)(C)C)sc2n1 [Example 2, tert-Butyl 5-amino-2-methylthio-4-(3-((N-(1-hydroxy-2-methyl-prop-2-yl) -glycinyl)-amino)-phenyl)-thieno[2,3-d]pyrimidine-6-carboxamide] | 
22 | 11.8 nM | 2970 nM | CC(C)(C)NC(=O)c1sc2nc(-c3ccco3)nc(-c3cccc(NC(=O)CNC(C)(C)CO)c3)c2c1N [Example 12] | 
23 | 4 nM | 616 nM | CN(CCO)CC(=O)Nc1cccc(-c2nc(-c3ccco3)nc3sc(C(=O)NC(C)(C)C)c(N)c23)c1 [Example 11, tert-Butyl 5-amino-2-(2-furyl)-4-(3-((N-methyl-N-(2-hydroxyethyl)-glycinyl)-amino)-phenyl)-thieno[2,3-d]pyrimidine-6-carboxamide] | 
